Assay results reported in patent US6534035B1, “Methods of inhibiting clot formation” (President and Fellows of Harvard College, priority 1998, dated 2003).
Peptide text beside a SMILES is read from it. * marks the point of attachment. Biotin = O=C1N[C@H]2[C@H](CS[C@H]2CCCCC(=O)*)N1

Legend:
[1] = target: T1, factor XIIIa-mediated crosslinking of α2AP to fibrin (Homo sapiens, UniProt P00488); assay: Inhibition of α2AP-fibrin crosslinking in plasma clots by α2AP polypeptide (immunoblot); format: biochemical
T1 construct: from tissue; host or cells: human plasma clotted with thrombin and calcium
T1 sequence (P00488 39-732 limits assumed): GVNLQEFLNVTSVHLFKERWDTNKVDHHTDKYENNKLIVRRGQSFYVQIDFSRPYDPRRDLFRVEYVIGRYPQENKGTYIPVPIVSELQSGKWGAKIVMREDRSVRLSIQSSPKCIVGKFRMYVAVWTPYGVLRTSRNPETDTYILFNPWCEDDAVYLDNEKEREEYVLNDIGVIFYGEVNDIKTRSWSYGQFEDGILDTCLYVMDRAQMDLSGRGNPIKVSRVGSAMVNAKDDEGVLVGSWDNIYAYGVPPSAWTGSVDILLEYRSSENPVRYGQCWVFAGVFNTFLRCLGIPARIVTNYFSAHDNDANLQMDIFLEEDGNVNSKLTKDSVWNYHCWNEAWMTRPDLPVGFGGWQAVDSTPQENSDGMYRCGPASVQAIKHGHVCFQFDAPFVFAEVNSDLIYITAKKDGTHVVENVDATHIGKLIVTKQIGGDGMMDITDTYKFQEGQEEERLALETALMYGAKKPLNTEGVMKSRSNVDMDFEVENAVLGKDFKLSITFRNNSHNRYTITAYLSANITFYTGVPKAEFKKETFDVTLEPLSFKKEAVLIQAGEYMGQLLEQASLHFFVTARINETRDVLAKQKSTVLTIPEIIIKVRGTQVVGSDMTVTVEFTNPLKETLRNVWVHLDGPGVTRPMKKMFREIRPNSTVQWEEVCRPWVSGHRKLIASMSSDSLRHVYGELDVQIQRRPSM
Experimental: To inhibit the crosslinking of α2AP to fibrin, a polypeptide spanning the crosslinking site on the amino terminus of α2AP (SEQ ID NO:2) was synthesized. The purity of the polypeptide was analyzed by high performance liquid chromatography, and its composition was verified by amino acid analysis on a Waters Picotag system. The α2AP polypeptide was then solubilized in 20 mM Tris-HCl and the pH was adjusted to 7.0. Various concentrations of polypeptide (7.5 μl, 0-5 mM final) were mixed with 20 μl of plasma, 1.25 μl of calcium chloride (0.4 mM), and 1.25 μof thrombin (10.0 units/ml) and clotted for 90 minutes at 37° C. as described above. The clots were solubilized and analyzed by immunoblotting as described above.

FXIIIa = target: T2, FXIIIa (Homo sapiens, UniProt P00488); assay: Dose-dependent crosslinking of α2AP13-24 into fibrin clots; format: biochemical; details: fibrin clots, compared to control clots
T2 construct: purchased American Diagnostica
T2 sequence (P00488 39-732 limits assumed): T1 sequence (P00488 39-732 limits assumed)
Experimental: Experiments were performed to determine how long FXIIIa in clots could crosslink various substrates such as human ^125I -α2AP, α2AP13-24 (SEQ ID NO:2), and 5-(biotinamido)pentylamine, into fibrin. In a typical experiment, clots were prepared (50 μl final volume) in duplicate by combining fibrinogen (2 mg/ml final), CaCl2 (2 mM final), buffer (Tris-buffered saline pH 7.4) and thrombin (1 U/ml) and incubating at 37° C. Synchronous with the addition of thrombin, or up to 240 minutes afterwards, the FXIIIa substrates 5-(biotinamido)pentylamine (0.5 mM final), ^125I -α2AP (70 μg/ml final), and α2AP13-24 (0 to 1 mM final) were mixed and added to the clot. […] Crosslinked ^125I-α2AP was detected and quantitated by phosphorimaging. Samples containing crosslinked α2AP13-24 and pentylamine substrates were electroblotted to PVDF membranes and detected by ^125I-streptavidin followed by phosphorimaging or by streptavidin-peroxidase followed by the developing agents 5-bromo-4-chloro-3-indolyl phosphate-nitro blue tetrazolium using methods known in the art. In experiments examining the effect of specific amino acid residues on the crosslinking of the α2AP13-24 peptide (SEQ ID NO:2) to fibrin, crosslinking was detected by immunoblotting with an anti-peptide antibody directed against this epitope followed by ^125I-protein A and phosphorimaging. […]

CC(C)C[C@H](NC(=O)[C@H](CC(C)C)NC(=O)[C@@H](NC(=O)[C@H](CC(C)C)NC(=O)[C@@H]1CCCN1C(=O)[C@H](CO)NC(=O)[C@@H](NC(=O)[C@H](CCC(N)=O)NC(=O)[C@H](CCC(=O)O)NC(=O)[C@H](CCC(N)=O)NC(=O)[C@@H](N)CC(N)=O)C(C)C)[C@@H](C)O)C(=O)N[C@@H](CCCCNC(=O)CCCC[C@@H]1SC[C@@H]2NC(=O)N[C@@H]21)C(=O)O [α2AP13-24, NQEQVSPLTLLK] (H-NQEQVSPLTLLK(Biotin)-OH)
α2AP-fibrin crosslinking ([1]; peptide concentrations of 1.5 mM and 3.0 mM): little α2AP crosslinking was visible
formation of fibrin γ-γ crosslinks ([1]; plasma clots formed with α2AP polypeptide): no apparent effect
peptide concentration giving progressively less α2AP-fibrin crosslinking ([1]; plasma clots, 90 minutes at 37° C.): ≥ 0.38 mM
lowest concentration at which crosslinking is seen (FXIIIa): 1.3 µM
